Laboratory results published in paper PMC10888192, “New Derivatives of 1-(3-Methyl-1-Benzofuran-2-yl)Ethan-1-one: Synthesis and Preliminary Studies of Biological Activity” (International Journal of Molecular Sciences, 2024).

Columns and labels:
[1] = system: IL-6 secretion by K562 cells; test: IL-6 release, ELISA; format: cell-based, human; settings: for Il-6 Concentration in K562 Cells in 72 h: ELISA, culture medium, IC50 concentration, mean ± SD; for Reduction of the level of IL-6: K562, IC50 concentration, 72 h
Source text: Among many soluble factors present in the plasma and tissue microenvironment in patients with chronic lymphatic leukemia recent studies confirmed a presence of few types of interleukin (IL) including 4, 6 and 10. […] IL-6 is a member of a big family of cytokines and is predominantly excreted by T cells and macrophages to stimulate immune response during infection. Studies have shown that elevated levels of serum IL-6 is positively correlated with worse clinical outcomes in patients with different types of cancer, including leukemia. IL-6 also plays a key role in the chemoresistance of malignancies. Based on these findings we checked the effect of our new benzofuran derivatives on IL-6 secretion by K562 cells. […] On the other hand, K562 cells like other erythroid and megakaryocytic cells release IL-6 in a constitutive way.
K562 cells were treated with IC50 concentrations of the tested compounds. After 72 h, medium was collected and the IL-6 level was measured using an enzyme-linked immunosorbent assay, in accordance with the manufacturer’s protocol. The resulting data were expressed as mean ± SD from three independent experiments performed in triplicate.

[2] = system: PC3 cells (human metastatic prostate cancer); test: MTT cytotoxicity assay, PC3; format: cell-based; settings: PC-3, 72 h incubation, mean ± SD
Protocol: The cell viability was analyzed at the following six concentrations of compounds: 5, 10, 20, 40, 60 and 100 µM after 72 h incubation.
Additionally, to determine the safety profile of the tested compounds, the therapeutic index (TI) (the ratio of IC50 value in HaCaT to cancer cells K562) was calculated. […] The goal of conducting the MTT assay in this research was to select benzofuran derivatives, which manage to reduce viability of cancer cells while exposing mild effects on normal healthy cells.
The cytotoxicity was evaluated by MTT reduction assay, which measures mitochondrial respiratory function. The test was performed based on the method described by Präbst et al.. Cells (1 × 10^4/well), in logarithmic phase, were seeded into 96-well plates in appropriate medium. After 24 h, cells were exposed to test compounds. […] After 72 h, the medium with the compounds was completely removed and MTT solution (0.5 mg/mL) in fresh medium without serum was added to each well. Plates with cells were incubated for 4 h at 37 °C in the dark. Then, MTT solution was removed and replenished with 0.1 mL DMSO: isopropanol (1:1) mixture to dissolve the generated formazan crystals. The optical density was measured with a […] GO (ThermoScientific) microplate reader at 570 nm. Replicates of three wells for each dosage, including vehicle control, were analyzed for each experiment. The experiments were conducted in triplicate. Control cells which were only treated with respective medium were used as the 100% viability value. […] Additionally, to determine the safety profile of the test compounds, therapeutic indexes (TI) (the ratio of IC50 values in HaCat to cancer cells (K562, PC3, SW620, Cack-1)) were calculated.

K562 cells = test: Annexin V-FITC/PI apoptosis assay, flow cytometry; format: cell-based, human; settings: Annexin V-FITC, IC50 concentration, 72 h
Source text: ROS may play a different function in different stages of cancer. ROS might enhance cell growth and proliferation through the induction of various cell signaling pathways involving nuclear factor-kappa B (NF-κB) and STAT3, hypoxia-inducible factor 1α (HIF1α), kinases, growth factors, cytokines and many other proteins. On the other hand, the accumulation of ROS can induce cell damage and promote apoptosis. It has also been confirmed that elevated ROS concentration may cause mitochondrial membrane depolarization and facilitate increased cellular pro-apoptotic molecules releasing. […] As has been previously reported, lead compound 1,1′-[3-(bromomethyl)-5,6-dimethoxy-1-benzofuran-2,7-diyl] induces apoptosis in human leukemia cells. […] We used the Annexin V-FITC test, which allows us to detect the early structural changes in cellular membrane which occur during apoptosis. […] In the control sample almost 94% of cells were neither apoptotic nor necrotic. […] As has been previously written, the MTT test assesses the toxicity of tested compounds based on the activity of mitochondrial enzymes. […] In order to estimate the effect of K562 exposure on the tested compounds as well as to confirm apoptotic properties of new benzofurans, we analyzed the effect of the compounds caspases 3 and 7 activities. […]

COc1cc(OC)c2c(CBr)c(C(C)=O)oc2c1 [Compound 6, 1-[3-(Bromomethyl)-4,6-Dimethoxy-1-Benzofuran-2-yl]Ethanone]
Il-6 Concentration in K562 Cells in 72 h [1]: 5.791 ± 2.048 | Reduction of the level of IL-6 [1]: 50% | IC50 [2]: 7.02 ± 2.22 µM | Apoptosis (early and late stages), share of K562 cells (K562 cells): 21.6%

CCOc1cccc2oc(C(C)=O)c(CBr)c12 [Compound 8, 1-[3-(Bromomethyl)-4-Ethoxy-1-Benzofuran-2-yl]Ethanone]
Il-6 Concentration in K562 Cells in 72 h [1]: 6.958 ± 3.623 | Reduction of the level of IL-6 [1]: 40% | IC50 [2]: 7.86 ± 2.62 µM | Apoptosis (early and late stages), share of K562 cells (K562 cells): 60.1%
